Data: patent publication US12612622B2, “Targeted mutagenesis using base editors” (Qi Biodesign Biotechnology Company Limited, priority 2018, dated 2026)
Like-named read-outs stand apart in the source and are kept apart here.

How the values were obtained:
[1] = tested on: rice seedlings with OsACC mutations
Text: The herbicide was applied with pressurized equipment at 0.2 MPa and a spray volume of 450 L/ha. Three weeks later, surviving seedlings were identified.

OsACC = test: Saturated de novo mutagenesis of OsACC CT domain in rice protoplasts, 20 sgRNAs; type: cell-based
Text: To test the ability of STEME to achieve saturated de novo mutagenesis in rice protoplasts, it has been taken acetyl-coenzyme A carboxylase (OsACC) as an example. ACC is a key enzyme in lipid biosynthesis and its carboxyltransferase (CT) domain is the target of herbicides (FIG. 5 b). Amino acid substitutions in the CT domain can confer herbicides resistance on grass. 20 sgRNAs has been designed, including 11 sgRNAs with forward direction NGD-3′ PAMs and 9 with reverse complement 5′-HCN (H=A, T or C) PAMs spanning a 168 bp DNA sequence that encodes 56 amino acids of the CT domain (FIG. 5b). Using STEME-NG, the sgRNAs covered 90.32% of the cytosines, 40.43% of the adenines, 77.78% of the guanines, and 38.89% of the thymines in the editing windows, corresponding in all to 61.31% of the bases of the coding strand. These sgRNAs has been co-transfected individually together with STEME-NG into rice protoplasts. A3A-PBE-NG and pCas9-NG served as controls. […] No base conversions were detected in the untreated control.
We also analyzed the amino acid substitutions generated by STEME-NG in the targeted 56 amino acids. […] Of these, twenty-four, twelve, and five amino acids had one, two, and three kinds of amino acids substitution, respectively. […] Similarly, A3A-PBE-NG mutated 33 amino acids, of which twenty-six, six, and one contained one, two, and three kinds of amino acids substitution, respectively. […] Thus, it promises to be a powerful tool for directed evolution of endogenous genes by saturated de novo mutagenesis in situ.
We used the Japonica rice variety Nipponbare to prepare protoplasts. Protoplast isolation and transformation were performed as described (Shan, Q. et al. Rapid and efficient gene modification in rice and Brachypodium using TALENs. Mol. Plant 6, 1365-1368 (2013).). 10 μg each of nuclease and sgRNA plasmid DNA were introduced into the protoplasts by PEG-mediated transfection, with a mean transformation efficiency of 40-55% as measured by hemocytometer. The transfected protoplasts were incubated at 23° C. and 60 h post-transfection they were collected and genomic DNA extracted for amplicon deep sequencing.
DNA extraction. The genomic DNA of protoplasts was extracted with a DNA-Quick Plant System (Tiangen Biotech, Beijing, China). Genomic DNA of regenerated rice seedlings was extracted with CTAB, and all the seedlings in each group were sampled together. The targeted site was amplified with specific primers, and the amplicons were purified with an EasyPure PCR Purification Kit (TransGen Biotech, Beijing, China), and quantified with a NanoDrop™ 2000 Spectrophotometer (Thermo Fisher Scientific, Waltham, MA, USA).

OsACCase gene = test: Base editing (pZRH-PBE + individual sgRNAs) of OsACCase functional domain in transgenic M0 rice plants; type: in vivo; conditions: for Frequency of indel (%) / Frequency of substitution (%) / No. of WT / No. of indel / No. of substitution: transgenic M0 plants; for No. of WT / No. of indel / No. of substitution: per sgRNA target
Text: For individual cloning, the following method is used. APOBEC1, partial nCas9 and UGI sequences (SEQ ID NO: 129) without BsaI were synthesized commercially (GenScript, Nanjing, China) and cloned into the pUC57 (SEQ ID NO: 130) as intermediate vector. […] The full length APOBEC1-nCas9-UGI was excised using XmaJI and SacI, then was subcloned into pHUE411 that had been digested using the same two enzymes. The resultant vector pZRH-PBE (SEQ ID NO: 133) was used to construct sgRNA expression plasmids using restriction enzyme site BsaI.

[2] = edited allele with the substitution of the same table line

Compound | No. of alleles (OsACCase gene; [2]) | Frequency of indel (%) (OsACCase gene) | Frequency of substitution (%) (OsACCase gene) | No. of WT (OsACCase gene) | No. of indel (OsACCase gene) | No. of substitution (OsACCase gene) | No. of alleles (OsACCase gene; unedited target site sequence) | other results
CC(Oc1ccc(Oc2ncc(C(F)(F)F)cc2Cl)cc1)C(=O)O (centres unmarked) [haloxyfop] | – | – | – | – | – | – | – | herbicide resistance of seedlings ([1]; Group 2 seedlings, S1866F heterozygotes): slightly weaker haloxyfop resistance; herbicide resistance of seedlings ([1]; Group 3 seedlings, A1884P heterozygotes): slightly weaker haloxyfop resistance; herbicide resistance of seedlings ([1]; Group 6 seedlings carrying P1927F, spray 34 g active ingredient ha-1, three weeks): clearly herbicide resistant; herbicide resistance of seedlings ([1]; Group 20 seedlings carrying W2125C, spray 34 g active ingredient ha-1, three weeks): clearly herbicide resistant
A3A-PBE-NG: A3A-PBE with nCas9-NG (D10A); protein SEQ ID NO: 186 | – | – | – | – | – | – | – | amino acids with one kind of amino acid substitution (OsACC): twenty-six; amino acids with three kinds of amino acid substitution (OsACC): one; amino acids with two kinds of amino acid substitution (OsACC): six; A>G or T>C substitutions (OsACC; coding strand): no A>G or T>C substitutions were found; Cs converted to Ts in the covered bases (OsACC; coding strand): 89.29%; Gs converted to As in the covered bases (OsACC; coding strand): 92.86%; amino acids substituted (OsACC; of the targeted 56 amino acids, silent, missense, nonsense): 33; indels (OsACC; rice protoplasts, 20 sgRNAs): < 0.01%
R39: sgRNA in pZRH-PBE; OsACCase target site CCGTTGGACCCACCGGACAGACC (SEQ ID NO: 125) (expressed or natural sequence; target site or template, no part of the molecule) | 1 | 50.0 | 25.0 | 1 | 2 | 1 | 1 | –
R40: sgRNA in pZRH-PBE; OsACCase target site CCTATTATTCTTACAGGCTATTC (SEQ ID NO: 127) (chemistry not fully specified; the letters are possibly those of the target site) | 1 | 6.7 | 13.3 | 12 | 1 | 2 | 1 | –
